Reference: patent publication US20170314205A1, “Microorganism Control System and Method of Using the Same” (Ecolab USA Inc., priority 2014, published 2017)

Assay: Effect of acid addition on pH and available chlorine of urea-stabilized halogen-containing bactericide
Format: physicochemical
Details: for Solution pH / Available chlorine: final 30 ml; for Available chlorine: blank 2550
Description: Then, 5 beakers were provided and separately added with 1 ml of the prepared urea-stabilized halogen-containing bactericide. After that, 29 ml of water was added to the first beaker for dilution (blank control), while the other 4 beakers were separately added with 20% sulfuric acid (0.5 ml or 1.0 ml) or 20% citric acid (1.0 ml or 2.0 ml), and added with water to reach a final volume of 30 ml. Finally, pH values and available chlorine contents (ppm) of solutions in the 5 beakers were measured.
Further, 10% aminosulfonic acid (which was used to replace sulfuric acid or citric acid, which dosage was 1.1 ml or 1.24 ml) was used to repeat the above experiments. […] In addition, after aminosulfonic acid was added, pH values and available chlorine contents (ppm) in solutions were measured, and after standing for 40 min, 120 min, and 240 min, available chlorine contents (ppm) of solutions were measured again. […]

[1] = acid volume 1.0 ml to 1 ml urea-stabilized bactericide (12.5% hypochlorite)
[2] = acid volume 2.0 ml to 1 ml urea-stabilized bactericide (12.5% hypochlorite)
[3] = acid volume 0.5 ml to 1 ml urea-stabilized bactericide (12.5% hypochlorite)

| SMILES | Solution pH [1] | Available chlorine [1] | Solution pH [2] | Available chlorine [2] | Solution pH [3] | Available chlorine [3] | Solution pH after mixing (10% acid 1.1 ml to 1 ml urea-stabilized bactericide (8.5% hypochlorite)) | Available chlorine after mixing (10% acid 1.1 ml, 0 min) | Available chlorine after mixing (10% acid 1.1 ml, 40 min) | Available chlorine after mixing (10% acid 1.1 ml, 120 min) | Available chlorine after mixing (10% acid 1.1 ml, 240 min) | Solution pH after mixing (10% acid 1.24 ml to 1 ml urea-stabilized bactericide (8.5% hypochlorite)) | Available chlorine after mixing (10% acid 1.24 ml, 0 min) | Available chlorine after mixing (10% acid 1.24 ml, 40 min) | Available chlorine after mixing (10% acid 1.24 ml, 120 min) | Available chlorine after mixing (10% acid 1.24 ml, 240 min) | Time for which available chlorine content of solution is maintained (urea-stabilized bactericide with pH regulated by aminosulfonic acid) |
| --- | --- | --- | --- | --- | --- | --- | --- | --- | --- | --- | --- | --- | --- | --- | --- | --- | --- |
| O=C(O)CC(O)(CC(=O)O)C(=O)O [20% citric acid, citric acid, reference compound] | 7.75 | 1250 ppm | 3.65 | 725 ppm | – | – | – | – | – | – | – | – | – | – | – | – | – |
| O=S(=O)(O)O [20% sulfuric acid, sulfuric acid, reference compound] | 2.15 | 455 ppm | – | – | 7.35 | 750 ppm | – | – | – | – | – | – | – | – | – | – | – |
| NS(=O)(=O)O [Aminosulfonic acid, aminosulfonic acid] | – | – | – | – | – | – | 8.46 | 1275 ppm | 1275 ppm | 1325 ppm | 1400 ppm | 5.96 | 1300 ppm | 1325 ppm | 1475 ppm | 1250 ppm | at least 240 min |
